Test system: nucleus-transferred oocytes
Assay: Development of nucleus-transferred oocytes after reprogramming and chemical activation
Type: cell-based, human
Settings: then 2.0 mM 6-DMAP, reprogramming time 2 hour, G1.2 then SNUnt-2, 16 oocytes
Excerpt: Since a sperm-mediated activation, which is one of the major factors for a normal embryonic development, was absent in case of the nucleus-transferred oocyte obtained in Example 2, an artificial stimulus was needed instead. In order to determine the optimum conditions for artificial embryogenesis, therefore, nucleus-transferred oocytes were reprogrammed, activated and in vitro cultured under various conditions as shown in Tables 2 to 4.
Such nucleus-transferred oocytes were washed several times with the G1.2 medium, transferred to the G1.2 medium containing 2.0 mM 6-DMAP (Sigma Co., St. Louis, Mo., U.S.A.) and, then, cultured at 37° C., 5% CO2, 5% O2 and 90% N2 for 4 hours. After these activation steps, the nucleus-transferred oocytes were in vitro cultured under the same condition.

With `C[C@H](CCC(=O)O)C[C@H](C)C[C@H](C)C(=O)/C=C(\O)[C@H](C)C[C@H](C)C/C=C/[C@@H](C)[C@@H](O)[C@@H](C)[C@@H](O)C[C@@H]1CC[C@@](C)([C@H]2CC[C@@](C)([C@@H](C)O)O2)O1` [ionomycin] the “No. of nucleus-transferred oocytes developed to 2-cell stage” value (5 μM) was 9, the “No. of nucleus-transferred oocytes developed to blastocyst” value (5 μM) was 0 and the “No. of nucleus-transferred oocytes developed to morula” value (5 μM) was 0. The “No. of nucleus-transferred oocytes developed to 2-cell stage” value (10 μM) was 12, the “No. of nucleus-transferred oocytes developed to blastocyst” value (10 μM) was 0 and the “No. of nucleus-transferred oocytes developed to morula” value (10 μM) was 0.
